Measurements: patent US20200368198A1, “METHODS FOR INCREASING FERTILITY” (NEWSOUTH INNOVATIONS PTY LIMITED, priority 2017, published 2020)

Tested on: SwissTacAusb female mice
Experiment: Oocyte yield in high fat fed mice treated with NMN
Type: in vivo
Settings: SwissTacAusb females, 3 months high fat feeding; NMN versus untreated high fat fed littermates
Text: Systemic treatment with the NAD^+ precursor nicotinamide mononucleotide (NMN) increases intracellular NAD^+ levels, and we hypothesised that NMN treatment could restore the activity of SIRT2 to stabilise BubR1 and maintain oocyte reserve and competence into later ages. We obtained 15 month-old female mice, an age at which this species is functionally infertile, and treated them with NMN through addition to drinking water (2 g/L) for 4 weeks. Animals were super-ovulated, and oocyte yield was assessed. […] Obesity is a major risk factor for female infertility, and to assess whether a similar mechanism was at work, we subjected young SwissTacAusb female mice to 3 months of high fat feeding, followed by NMN treatment for 4 weeks.

NC(=O)c1ccc[n+]([C@@H]2O[C@H](COP(=O)([O-])O)[C@@H](O)[C@H]2O)c1 [NMN, nicotinamide mononucleotide]
Oocyte yield in high fat fed mice: higher oocyte yield
